# Patent publication US9029337B2, “Modulation of factor 7 expression” (Isis Pharmaceuticals, Inc., priority 2007, dated 2015)
# Strand notation (5' to 3'): a small letter for the sugar, then the base; units joined by * are phosphorothioate-linked, units joined directly phosphodiester-linked; [ ] holds rarer units or linkages, { } end groups; capitals alone tell only the bases. e = 2'-O-(2-methoxyethyl) (MOE); [5mC] = 5-methylcytosine; d = 2'-deoxy (DNA)
# System: human Factor 7 mRNA
# Experiment: Antisense inhibition of human Factor 7 with short (14-mer) oligonucleotides in HepB3 cells, electroporation 1,000 nM
# Assay type: cell-based
# Conditions: electroporation, 1,000 nM antisense oligonucleotide, approximately 24 hours, Factor 7 mRNA relative to untreated control cells
# Excerpt: Short antisense oligonucleotides (shortmers) were designed to target a Factor 7 nucleic acid. The shortmers in Table 17 were designed as 2-10-2 MOE gapmers. The gapmers are 14 nucleotides in length, wherein the central gap segment is comprised of 10 2′-deoxynucleotides and is flanked on both sides (in the 5′ and 3′ directions) by wings comprising 2 nucleotides each. Each nucleotide in the 5′ wing segment and each nucleotide in the 3′ wing segment has a 2′-MOE modification. The internucleoside linkages throughout each gapmer are phosphorothioate (P═S) linkages. All cytidine residues throughout each gapmer are 5-methylcytidines.
# Shortmers were evaluated for their ability to reduce human Factor 7 mRNA in HepB3 cells and compared with one 5-10-5 chimeric oligonucleotide from Table 16, ISIS 407939. HepB3 cells at a density of 20,000 cells per well in a 96-well plate were transfected using electroporation with 1,000 nM of antisense oligonucleotide. After a treatment period of approximately 24 hours, RNA was isolated from the cells and Factor 7 mRNA levels were measured by real-time RT-PCR, as described herein. Factor 7 mRNA levels were adjusted according to total RNA content as measured by RIBOGREEN®. Results are presented in Table 17 as percent inhibition of Factor 7 mRNA, relative to untreated control cells. ISIS 407939 is the first oligonucleotide in Table 17 to which the shortmers were compared, and is marked by an asterisk (*).
row,Substance,% Inhibition [%]
1,435502 (antisense eG*eT*dA*d[5mC]*dT*dG*dG*dG*dA*dG*dA*d[5mC]*e[5mC]*e[5mC]) [compound 435502],69
2,435503 (antisense eT*eG*dT*dA*d[5mC]*dT*dG*dG*dG*dA*dG*dA*e[5mC]*e[5mC]) [compound 435503],17
3,435504 (antisense eA*eT*dG*dT*dA*d[5mC]*dT*dG*dG*dG*dA*dG*eA*e[5mC]) [compound 435504],8
4,435634 (antisense eT*eG*dA*dA*dA*dT*d[5mC]*dT*d[5mC]*dT*dG*d[5mC]*eA*eG) [compound 435634],5
5,435635 (antisense e[5mC]*eA*dT*dG*dA*dT*dG*dA*dA*dA*dT*d[5mC]*eT*e[5mC]) [compound 435635],0
6,435636 (antisense eG*eA*dG*dA*d[5mC]*d[5mC]*dA*dT*dG*dA*dT*dG*eA*eA) [compound 435636],13
7,435637 (antisense eT*eG*dA*dA*dG*d[5mC]*d[5mC]*d[5mC]*dA*dA*dG*d[5mC]*eA*eG) [compound 435637],11
8,435638 (antisense eA*eG*d[5mC]*d[5mC]*d[5mC]*dT*dG*dA*dA*dG*d[5mC]*d[5mC]*e[5mC]*eA) [compound 435638],55
9,435639 (antisense eT*e[5mC]*d[5mC]*dA*dG*dA*dA*d[5mC]*dA*dG*d[5mC]*dT*eT*e[5mC]) [compound 435639],31
10,435640 (antisense eT*eG*dT*dA*dA*dG*dA*dA*dA*dT*d[5mC]*d[5mC]*eA*eG) [compound 435640],2
11,435641 (antisense eG*eG*dT*d[5mC]*d[5mC]*d[5mC]*d[5mC]*dA*dT*d[5mC]*dA*d[5mC]*eT*eG) [compound 435641],51
12,435642 (antisense eA*e[5mC]*dA*d[5mC]*dT*dG*dG*dT*d[5mC]*d[5mC]*d[5mC]*d[5mC]*eA*eT) [compound 435642],60
13,435643 (antisense e[5mC]*eT*dT*dG*d[5mC]*dA*dG*dG*dA*dG*d[5mC]*d[5mC]*e[5mC]*e[5mC]) [compound 435643],51
14,435644 (antisense eT*eG*dG*dT*d[5mC]*d[5mC]*dT*dT*dG*d[5mC]*dA*dG*eG*eA) [compound 435644],30
15,435645 (antisense eG*eG*dA*dG*d[5mC]*dT*dG*dG*dT*d[5mC]*d[5mC]*dT*eT*eG) [compound 435645],44
16,435646 (antisense eT*eA*dG*dG*dA*d[5mC]*dT*dG*dG*dA*dG*d[5mC]*eT*eG) [compound 435646],13
17,435647 (antisense eA*eG*dA*dT*dA*dT*dA*dG*dG*dA*d[5mC]*dT*eG*eG) [compound 435647],0
18,435648 (antisense eG*eA*dA*dG*d[5mC]*dA*dG*dA*dT*dA*dT*dA*eG*eG) [compound 435648],0
19,435649 (antisense eA*eG*dG*d[5mC]*dA*dG*dA*dA*dG*d[5mC]*dA*dG*eA*eT) [compound 435649],21
20,435650 (antisense e[5mC]*e[5mC]*dG*dG*d[5mC]*d[5mC]*d[5mC]*dT*d[5mC]*dG*dA*dA*eG*eG) [compound 435650],6
21,435651 (antisense eA*e[5mC]*dA*dG*dT*dT*d[5mC]*d[5mC]*dG*dG*d[5mC]*d[5mC]*e[5mC]*eT) [compound 435651],71
22,435652 (antisense e[5mC]*eT*dG*dG*dT*d[5mC]*dA*dT*d[5mC]*d[5mC]*dT*dT*eG*eT) [compound 435652],48
23,435653 (antisense eA*eT*d[5mC]*dA*dG*d[5mC]*dT*dG*dG*dT*d[5mC]*dA*eT*e[5mC]) [compound 435653],32
24,435654 (antisense eG*e[5mC]*d[5mC]*dG*dT*dT*d[5mC]*dT*d[5mC]*dG*dT*dT*e[5mC]*eA) [compound 435654],71
25,435655 (antisense eA*e[5mC]*dA*dG*d[5mC]*d[5mC]*dG*d[5mC]*d[5mC]*dG*dT*dT*e[5mC]*eT) [compound 435655],49

row,Substance,% Inhibition [%]
1,435656 (antisense eA*e[5mC]*dT*dG*d[5mC]*dT*d[5mC]*dA*d[5mC]*dA*dG*d[5mC]*e[5mC]*eG) [compound 435656],58
2,435657 (antisense eG*e[5mC]*dA*dG*dT*dA*d[5mC]*dT*dG*d[5mC]*dT*d[5mC]*eA*e[5mC]) [compound 435657],69
3,435658 (antisense eT*e[5mC]*dA*d[5mC]*dT*dG*d[5mC]*dA*dG*dT*dA*d[5mC]*eT*eG) [compound 435658],60
4,435659 (antisense eT*eA*d[5mC]*d[5mC]*d[5mC]*d[5mC]*dT*d[5mC]*dG*dT*dG*dG*e[5mC]*eA) [compound 435659],18
5,435660 (antisense e[5mC]*e[5mC]*dG*dT*d[5mC]*dT*dG*d[5mC]*d[5mC]*dA*dG*d[5mC]*eA*eG) [compound 435660],58
6,435661 (antisense eG*eG*dA*d[5mC]*dA*d[5mC]*d[5mC]*d[5mC]*d[5mC]*dG*dT*d[5mC]*eT*eG) [compound 435661],18
7,435662 (antisense eT*eG*dG*dA*dT*dA*dT*dT*d[5mC]*dA*dA*d[5mC]*eT*eG) [compound 435662],19
8,435663 (antisense e[5mC]*e[5mC]*dA*d[5mC]*dA*dT*dG*dG*dA*dT*dA*dT*eT*e[5mC]) [compound 435663],50
9,435664 (antisense eT*eT*dT*dT*dT*d[5mC]*d[5mC]*dA*d[5mC]*dA*dT*dG*eG*eA) [compound 435664],4
10,435665 (antisense eA*eG*dG*dT*dA*dT*dT*dT*dT*dT*d[5mC]*d[5mC]*eA*e[5mC]) [compound 435665],0
11,435666 (antisense eG*eG*dT*dT*dT*dG*d[5mC]*dT*dG*dG*d[5mC]*dA*eT*eT) [compound 435666],71
12,435667 (antisense eA*eA*dT*dT*d[5mC]*dG*dG*d[5mC]*d[5mC]*dT*dT*dG*eG*eG) [compound 435667],16
13,435668 (antisense eT*eG*d[5mC]*d[5mC]*dA*dT*dG*dG*dA*d[5mC]*dA*d[5mC]*eT*e[5mC]) [compound 435668],75
14,435669 (antisense eG*eG*dA*d[5mC]*d[5mC]*dT*dG*d[5mC]*d[5mC]*dA*dT*dG*eG*eA) [compound 435669],36
15,435670 (antisense e[5mC]*eA*dA*d[5mC]*dA*dG*dG*dA*d[5mC]*d[5mC]*dT*dG*e[5mC]*e[5mC]) [compound 435670],47
16,435671 (antisense eT*e[5mC]*dA*d[5mC]*d[5mC]*dA*dA*d[5mC]*dA*dA*d[5mC]*dA*eG*eG) [compound 435671],28
17,435672 (antisense eA*e[5mC]*d[5mC]*d[5mC]*dA*dG*dA*dT*dG*dG*dT*dG*eT*eT) [compound 435672],12
18,435673 (antisense eA*eG*dA*d[5mC]*d[5mC]*dA*d[5mC]*d[5mC]*d[5mC]*dA*dG*dA*eT*eG) [compound 435673],34
19,435674 (antisense eA*eA*dA*d[5mC]*dA*dG*dT*dG*dG*dG*d[5mC]*d[5mC]*eG*e[5mC]) [compound 435674],34
20,435675 (antisense eT*eG*dT*d[5mC]*dG*dA*dA*dA*d[5mC]*dA*dG*dT*eG*eG) [compound 435675],24
21,435676 (antisense eG*eA*dT*dT*dT*dT*dG*dT*d[5mC]*dG*dA*dA*eA*e[5mC]) [compound 435676],11
22,435677 (antisense eG*eT*dG*d[5mC]*dT*d[5mC]*dG*d[5mC]*d[5mC]*d[5mC]*dA*dG*e[5mC]*eA) [compound 435677],60
23,435678 (antisense eA*eG*dG*dT*d[5mC]*dG*dT*dG*d[5mC]*dT*d[5mC]*dG*e[5mC]*e[5mC]) [compound 435678],67
24,435679 (antisense e[5mC]*eG*d[5mC]*dT*dG*dA*dG*dG*dT*d[5mC]*dG*dT*eG*e[5mC]) [compound 435679],62
25,435680 (antisense eG*eT*dG*d[5mC]*dT*d[5mC]*dG*d[5mC]*dT*dG*dA*dG*eG*eT) [compound 435680],52
